In brackets after ≈: the same amount, converted by molar mass.
Experiments:
E. coli ATCC 25922 = assay: Antibacterial susceptibility testing, broth microdilution (MIC); assay type: cell-based, Escherichia coli
Procedure: (§1) Bacterial strains and growth conditions. Five reference strains, Staphylococcus aureus ATCC 25923, Bacillus subtilis ATCC 6633, E. faecalis ATCC 29212, Escherichia coli ATCC 25922 and Pseudomonas aeruginosa ATCC 27853, and three multidrug-resistant isolates from environment, S. aureus B1 (a MRSA isolated from public buses), Enterococcus faecalis W1 (a VRE isolated from river water) and E. coli G1 (isolated from seagull feces) were used. Bacteria were grown overnight at 37° C. in Mueller-Hinton agar (MH—BioKar diagnostics, Allonne, France) prior to obtain be used in the subsequently described bioassays.
(§2) Antibacterial susceptibility testing. The minimum inhibitory concentration (MIC) values of the compounds of FIGS. 1D, 1E, 1G, 1H (equation i-iv) and 11 (equations v-x) were determined, in particular, by a broth microdilution technique, following the recommendations of the Clinical and Laboratory Standards Institute. Stock solutions of 10 mg/ml in DMSO were used to prepare in-test concentrations ranging from 2 to 256 μg/ml. Ciprofloxacin in the concentration range from 0.03125 to 16 μg/ml was used, in particular, as control drug in the experiment. The MIC was defined as the lowest concentration of compound that has inhibited the visible growth. The minimum bactericidal concentration (MBC) was determined by spreading on MH plates, 10 μL collected from the wells corresponding to the MIC and to higher concentrations, with further incubation for 24 h at 37° C.; the lowest concentration at which no growth occurred on MH was defined as the MBC.

S. aureus B1 (MRSA) = assay: Antibacterial susceptibility testing, broth microdilution (MIC/MBC); assay type: cell-based, Staphylococcus aureus; conditions: S. aureus B1 (MRSA)
Procedure: as §1, §2

S. aureus ATCC 25923 = assay: as above; assay type: cell-based, Staphylococcus aureus
Procedure: as §1, §2

E. faecalis W1 [1] = assay: Biofilm inhibitory and biofilm eradication concentrations on 24-h mature biofilms; assay type: cell-based, Enterococcus faecalis
Procedure: (§3) Determination of neofiscalin A biofilm inhibitory and biofilm eradication concentrations. The efficacy of neofiscalin A on 24-h mature biofilms of S. aureus B1 and E. faecalis W1 was also evaluated, in particular, by determining the BIC and the BEC. […] The optical density at 595 nm was measured at time 0 and after incubation for 24 h at 37° C. The BIC was determined as the lowest concentration of the compound inhibiting growth in the supernatant fluid, confirmed by no increase in the optical density compared with the initial reading. The BEC was determined as the lowest concentration that prevented regrowth of biofilm cells on tryptic soy agar plates.

[2] = test system: S. aureus and E. faecalis strains; assay: Antibacterial susceptibility testing; assay type: cell-based
Procedure: as §1, §2

B. subtilis ATCC 6633 = assay: Antibacterial susceptibility testing, broth microdilution (MIC/MBC); assay type: cell-based, Bacillus subtilis
Procedure: as §1, §2

E. faecalis W1 [3] = assay: Biofilm metabolic activity after treatment, MTT; assay type: cell-based, Enterococcus faecalis; conditions: 24-h biofilms of E. faecalis W1 treated for 24 h with 200 μg/ml
Procedure: (§4) Evaluation of the biofilm metabolic activity after treatment with different concentrations of neofiscalin A. Twenty four-hours biofilms of S. aureus B1 and E. faecalis W1 formed as above described were subsequently treated with high concentrations of neofiscalin A, in particular up to 25×MIC. After 24 h of incubation at 37° C., the bacterial metabolic activity of biofilms was quantified using the 3-(4,5-dimethylthiazole-2-yl)-2,5-diphenyl tetrazolium bromide (MTT, Sigma-Aldrich, St Louis, USA). MTT is used to assess cell viability as a function of redox potential. Actively respiring cells convert the water-soluble MU to an insoluble purple formazan. The formazan is then solubilized and its concentration determined by optical density. In this assay, biofilms were treated with MU (0.5 mg/ml) for 2 h at 37° C. in the dark. DMSO was used to extract the formazan dye product and then the absorbance at 550 nm was measured.

S. aureus B1 [4] = assay: Biofilm metabolic activity after treatment, MTT; assay type: cell-based, Staphylococcus aureus; conditions: 24-h biofilms of S. aureus B1 treated for 24 h with 200 μg/ml
Procedure: as §4

P. aeruginosa ATCC 27853 = assay: Antibacterial susceptibility testing, broth microdilution (MIC); assay type: cell-based, Pseudomonas aeruginosa
Procedure: as §1, §2

S. aureus B1 [5] = assay: Biofilm inhibitory and biofilm eradication concentrations on 24-h mature biofilms; assay type: cell-based, Staphylococcus aureus
Procedure: as §3

[6] = test system: S. aureus B1 and E. faecalis W1; assay: Microscopic visualization of biofilms, Live/Dead staining; assay type: cell-based; conditions: 24 h
Procedure: The efficacy of neofiscalin A was also evaluated in hampering the biofilm formation. Neofiscalin A, in particular, at concentrations of 2×MIC, MIC, ½×MIC and ¼×MIC was added to bacterial suspensions of 1×10^6 CFU/ml in Tryptic Soy Broth (TSB—BioKar diagnostics, Allonne, France) of S. aureus ATCC 25923, E. faecalis ATCC 29212, S. aureus B1 and E. faecalis W1. Bacterial suspensions in absence of the compound were used as controls. Biofilm formation was induced, in particular, in 96-well flat-bottomed microtiter plates (200 μL/well) for 24 h at 37° C. After that time, biofilm biomass was quantified through the crystal violet assay as follows: the planktonic phase was discharged, then the biofilm was stained with 0.5% crystal violet for 5 min, rinsed with water, air dried and eluted with acetic acid 33% (v/v). The optical density was measured at 595 nm (0D595) using a microplate reader (iMark™ microplate absorbance reader, Bio-Rad Laboratories, Hercules, Calif., USA). Two independent experiments were performed in triplicate for each experimental condition. The statistical significance of the difference between biofilm controls and biofilms in the presence of different concentrations of compounds was evaluated using Student's t test. […] Images were recorded at an emission wavelength of 500 nm for SYTO 9 (green fluorescence) and of 635 nm for propidium iodide (red fluorescence).

E. faecalis W1 (VRE) = assay: Antibacterial susceptibility testing, broth microdilution (MIC/MBC); assay type: cell-based, Enterococcus faecalis; conditions: E. faecalis W1 (VRE)
Procedure: as §1, §2

E. faecalis ATCC 29212 = assay: as above; assay type: cell-based, Enterococcus faecalis
Procedure: as §1, §2

[7] = test system: S. aureus ATCC 25923, E. faecalis ATCC 29212, S. aureus B1 and E. faecalis W1; assay: Inhibition of biofilm formation, crystal violet assay; assay type: cell-based; conditions: for biofilm formation (biomass, crystal violet): 24 h
Procedure: The efficacy of neofiscalin A was also evaluated in hampering the biofilm formation. Neofiscalin A, in particular, at concentrations of 2×MIC, MIC, ½×MIC and ¼×MIC was added to bacterial suspensions of 1×10^6 CFU/ml in Tryptic Soy Broth (TSB—BioKar diagnostics, Allonne, France) of S. aureus ATCC 25923, E. faecalis ATCC 29212, S. aureus B1 and E. faecalis W1. Bacterial suspensions in absence of the compound were used as controls. Biofilm formation was induced, in particular, in 96-well flat-bottomed microtiter plates (200 μL/well) for 24 h at 37° C. After that time, biofilm biomass was quantified through the crystal violet assay as follows: the planktonic phase was discharged, then the biofilm was stained with 0.5% crystal violet for 5 min, rinsed with water, air dried and eluted with acetic acid 33% (v/v). The optical density was measured at 595 nm (0D595) using a microplate reader (iMark™ microplate absorbance reader, Bio-Rad Laboratories, Hercules, Calif., USA). Two independent experiments were performed in triplicate for each experimental condition. The statistical significance of the difference between biofilm controls and biofilms in the presence of different concentrations of compounds was evaluated using Student's t test. In both cases, probability levels <0.05 were considered statistically significant. Additionally, a microscopic visualization of the biofilms of S. aureus B1 and E. faecalis W1 was performed, in particular, using the Live/Dead BacLight viability kit (Life Technologies—Molecular Probes, Carlsbad, Calif., USA). Biofilms were formed, in particular, in 35-mm diameter polystyrene plates using TSB (control) and TSB supplemented with the MIC or ¼×MIC of neofiscalin A. After 24 h at 37° C., the planktonic phase was removed from each plate and the biofilms were washed with PBS, stained with the appropriate mixture of SYTO 9 and propidium iodide stains and incubated for 20 min at room temperature, in particular 20-25° C., in the dark; then, biofilms were rinsed and examined under a fluorescence microscope (BX41 Microscope, Olympus America Inc., Center Valley, Pa., USA). Images were recorded at an emission wavelength of 500 nm for SYTO 9 (green fluorescence) and of 635 nm for propidium iodide (red fluorescence).

Minimum inhibitory concentration-MIC (E. coli ATCC 25922): >256 µg/mL | Minimum inhibitory concentration-MIC (S. aureus B1 (MRSA)): 8 µg/mL (≈ 16.9 µM) | Minimum inhibitory concentration-MIC (S. aureus ATCC 25923): 8 µg/mL (≈ 16.9 µM) | MIC value ([2]; S. aureus and E. faecalis strains, including multidrug-resistant isolates (MRSA, VRE)): 8 µg/mL (≈ 16.9 µM) | MBC relative to the MIC ([2]; Table 3 versus Table 2): usually four times higher than the MIC | Minimum inhibitory concentration-MIC (B. subtilis ATCC 6633): 128 µg/mL (≈ 270 µM) | Minimum inhibitory concentration-MIC (P. aeruginosa ATCC 27853): >256 µg/mL | Minimum inhibitory concentration-MIC (E. faecalis W1 (VRE)): 8 µg/mL (≈ 16.9 µM) | Minimum inhibitory concentration-MIC (E. faecalis ATCC 29212): 8 µg/mL (≈ 16.9 µM)
Compound: CC(C)[C@@H]1NC(=O)[C@@H](C[C@]2(O)c3ccccc3N3C(=O)[C@@H](C)N[C@H]32)n2c1nc1ccccc1c2=O [FIG. 1I (eq. ix), neofiscalin A]
Minimum bactericidal concentration-MBC (S. aureus B1 (MRSA)): 32 µg/mL (≈ 67.6 µM) | Minimum bactericidal concentration-MBC (S. aureus ATCC 25923): 16 µg/mL (≈ 33.8 µM) | biofilm inhibitory concentration (BIC) (E. faecalis W1 [1]; 24-h biofilms of E. faecalis W1 (VRE)): 80 µg/mL | biofilm eradication concentration (BEC) (E. faecalis W1 [1]; 24-h biofilms of E. faecalis W1, higher than 25×MIC): > 200 µg/mL | antibacterial activity ([2]; reference strains and multidrug-resistant isolates, highest concentration tested 256 μg/ml): presented antibacterial activity against Gram-positive bacteria | Minimum bactericidal concentration-MBC (B. subtilis ATCC 6633): >256 µg/mL | reduction of metabolic activity of biofilm (MTT) (E. faecalis W1 [3]): ~50% | reduction of metabolic activity of biofilm (MTT) (S. aureus B1 [4]): ~50% | biofilm inhibitory concentration (BIC) (S. aureus B1 [5]; 24-h biofilms of S. aureus B1 (MRSA)): 96 µg/mL | biofilm eradication concentration (BEC) (S. aureus B1 [5]; 24-h biofilms of S. aureus B1, higher than 25×MIC): > 200 µg/mL | biofilm formation (Live/Dead microscopy) ([6]; at the MIC): no biofilm was produced | biofilm formation (Live/Dead microscopy) ([6]; ¼×MIC): a biofilm was formed (FIG. 4C), though it was not as large as in the control | Minimum bactericidal concentration-MBC (E. faecalis W1 (VRE)): 32 µg/mL (≈ 67.6 µM) | Minimum bactericidal concentration-MBC (E. faecalis ATCC 29212): 32 µg/mL (≈ 67.6 µM) | biofilm formation (biomass, crystal violet) ([7]; 2×MIC and MIC): none of the strains was able to form a biofilm | biofilm formation ([7]; MRSA and VRE strains): inhibit the biofilm formation | biofilm formation (biomass, crystal violet) ([7]; ¼×MIC): allowed the formation of a larger biofilm, but smaller than that observed in the control group | biofilm formation (biomass, crystal violet) ([7]; ½×MIC): the strains did not succeed in forming much biofilm
